Test system: Hepatitis C virus
Assay: Antiviral activity against Hepatitis C virus genotype 1b infected in human Huh cells assessed as inhibition of viral replication by RT-PCR-based replicon assay
Type: functional, cell-based, Hepacivirus hominis
Details: not given

SMILES | EC50
CCOc1nc(NC(=O)C2(NC(=O)c3ccc4c(C5CCCC5)c(-c5ncc(Cl)cn5)n(C)c4c3)CCC2)ccc1/C=C/C(=O)O | 13 nM
CCOc1nc(NC(=O)C2(NC(=O)c3ccc4c(c3)c(C)c(-c3ccc(F)cn3)n4C3CCCCC3)CCC2)cnc1/C=C/C(=O)O | 12 nM
CCOc1nc(NC(=O)C2(NC(=O)c3ccc4c(C5CCCC5)c(-c5ccccn5)n(C)c4c3)CCC2)ccc1/C=C/C(=O)O | 11 nM

Test system: not listed separately
Assay: Lipophilicity, log D of the compound at pH 7.4
Type: physicochemical
Details: buffer

SMILES | logD
CCOc1nc(NC(=O)C2(NC(=O)c3ccc4c(C5CCCC5)c(-c5ncc(Cl)cn5)n(C)c4c3)CCC2)ccc1/C=C/C(=O)O | > 5.9
CCOc1nc(NC(=O)C2(NC(=O)c3ccc4c(c3)c(C)c(-c3ccc(F)cn3)n4C3CCCCC3)CCC2)cnc1/C=C/C(=O)O | 3.1
CCOc1nc(NC(=O)C2(NC(=O)c3ccc4c(C5CCCC5)c(-c5ccccn5)n(C)c4c3)CCC2)ccc1/C=C/C(=O)O | 4.4

Test system: not listed separately
Assay: Half life in human liver microsomes at 2 uM
Type: ADME
Details: not given

SMILES | half-life at 2 µM
CCOc1nc(NC(=O)C2(NC(=O)c3ccc4c(C5CCCC5)c(-c5ncc(Cl)cn5)n(C)c4c3)CCC2)ccc1/C=C/C(=O)O | 66 min
CCOc1nc(NC(=O)C2(NC(=O)c3ccc4c(C5CCCC5)c(-c5ccccn5)n(C)c4c3)CCC2)ccc1/C=C/C(=O)O | 40 min

Test system: Hepatitis C virus
Assay: Antiviral activity against Hepatitis C virus genotype 1a infected in human Huh cells assessed as inhibition of viral replication by RT-PCR-based replicon assay
Type: functional, cell-based, Hepacivirus hominis
Details: subtype 1a

SMILES | EC50
CCOc1nc(NC(=O)C2(NC(=O)c3ccc4c(C5CCCC5)c(-c5ncc(Cl)cn5)n(C)c4c3)CCC2)ccc1/C=C/C(=O)O | 24 nM
CCOc1nc(NC(=O)C2(NC(=O)c3ccc4c(c3)c(C)c(-c3ccc(F)cn3)n4C3CCCCC3)CCC2)cnc1/C=C/C(=O)O | 63 nM

Test system: not listed separately
Assay: Permeability from apical to basolateral side of human Caco2 cells
Type: ADME, cell-based
Details: Caco-2, read-out: permeability

SMILES | Papp A→B
CCOc1nc(NC(=O)C2(NC(=O)c3ccc4c(C5CCCC5)c(-c5ncc(Cl)cn5)n(C)c4c3)CCC2)ccc1/C=C/C(=O)O | 15 ×10⁻⁶ cm/s
CCOc1nc(NC(=O)C2(NC(=O)c3ccc4c(C5CCCC5)c(-c5ccccn5)n(C)c4c3)CCC2)ccc1/C=C/C(=O)O | 21 ×10⁻⁶ cm/s
